Source: patent US20130045991A1, “NEUROPROTECTIVE MODULATION OF NMDA RECEPTOR SUBTYPE ACTIVITIES” (THE UNIVERSITY OF BRITISH COLUMBIA, priority 2005, published 2013)
Entries after “also recorded” stand apart in the source; their conditions may differ.

Legend:
[1] = test system: NMDA receptors (NR2A- and NR2B-containing); assay: Whole-cell currents evoked by NMDA in cultured cortical neurons; format: cell-based, rat; conditions: for percentage blockade of NMDA-induced currents, applied alone: NVP-AAM077 0.4 μM or Ro25-6981 0.5 μM bath applied alone, 10 μM glycine, 5 μM strychnine, -60 mV; for percentage blockade of NMDA-induced currents, applied alone / percentage blockade of NMDA-induced currents, applied after blockade by the other antagonist: 50 μM NMDA; for percentage blockade of NMDA-induced currents, applied after blockade by the other antagonist: sequential application, NVP-AAM077 0.4 μM, Ro25-6981 0.5 μM
synaptic NMDA receptors = assay: mEPSC recording, NMDA receptor-mediated component; format: cell-based, rat
cortical neurons [2] = assay: Glycine pretreatment before NMDA-induced neuronal apoptosis; format: cell-based, rat; conditions: co-applied with glycine; NVP-AAM077 0.4 μM, Ro25-6981 0.5 μM
Method: Mature neurons (11-14 DIV) were used for experiments.
(§1) To visualize injured neurons, Hoechst-33342 (10 μg/ml) was added to the culture medium 20 h after treatments and incubated for 45 min at 37 °C. Images were taken with a Leica DMIRE2 fluorescence microscope. Quantitative assessment of neuronal apoptosis was performed 20 h following treatments using a Cell Death Detection […] Kit (Roche Applied Science). Absorbance readings were determined using a spectrophotometric microplate reader. Data analyses were carried out according to the manufacturer's instructions. Data are expressed as the difference in apoptosis relative to control and are expressed as a percentage.

cortical cultures = assay: Oxygen and glucose deprivation (OGD), in vitro stroke model; format: cell-based, rat; conditions: 1 h OGD; NVP-AAM077 0.4 μM or Ro 25-6981 0.5 μM; apoptosis 20 h after OGD
From the text: Taking advantage of the finding of the opposing roles of NR2A- and NR2B-containing NMDA receptors in mediating cell survival and death, one aspect of the invention involves modulating the activity of the two subpopulations of receptors to ameliorate neuronal injury following acute brain insults, such as stroke and brain trauma. To illustrate this aspect of the invention, we employed a well-characterized in vitro stroke model, oxygen and glucose deprivation (OGD) (Goldberg et al., 1993; Aarts et al., 2002). Cortical cultures of 11-14 DIV were exposed to an anaerobic atmosphere for 1 h in a glucose-free solution in the absence or the presence of either NVP-AAM077 (0.4 μM) or Ro 25-6981 (0.5 μM). Neuronal apoptosis was quantitatively determined 20 h after OGD.
To visualize injured neurons, Hoechst-33342 (10 μg/ml) was added to the culture medium 20 h after treatments and incubated for 45 min at 37 °C. Images were taken with a Leica DMIRE2 fluorescence microscope. Quantitative assessment of neuronal apoptosis was performed 20 h following treatments using a Cell Death Detection ELISAPLUS Kit (Roche Applied Science). Absorbance readings were determined using a spectrophotometric microplate reader. Data analyses were carried out according to the manufacturer's instructions. Data are expressed as the difference in apoptosis relative to control and are expressed as a percentage. […]

[3] = test system: middle cerebral artery occlusion (MCAo); assay: MCAo focal ischemic stroke model, post-ischemic treatment; format: in vivo, rat; conditions: for effect of co-administration on the glycine effect (infarct volume reduction): co-administered with glycine 800 mg/kg 4.5 h after stroke onset
From the text: In some clinical settings, it is desirable to implement therapy after the onset of neuronal injury, such as stroke or other ischemic events.
Transient cerebral focal ischemia was produced by middle cerebral artery occlusion (MCAo) as described (Aarts et al., 2002; Bederson et al., 1986; Longa et al., 1989). Briefly, male Sprague-Dawley rats (Charles River Laboratories) weighing ˜300 g were anesthetized and MCAo was achieved by introducing a 3-0 monofilament suture into the MCA via the internal carotid artery. Body temperature was maintained at 37.0±0.5° C., and blood pressure and blood gases were monitored during the experiments. Animals were sacrificed 24 h following MCAo onset. Cerebral infarction was analyzed using brain sections stained with hematoxylin and eosin (H & E) or 2,3,5-triphenyltetrazolium chloride (TTC). 10 min before the animals were sacrificed, two tests, the postural reflex test to examine upper body posture (Bederson et al., 1986) and the forelimb placing test to examine sensorimotor integration in forelimb placing responses to visual, tactile, and proprioceptive stimuli (De Ryck et al., 1989), were performed to grade neurological function on a scale of 0 to 12 (0=normal, 12=worst). In the pretreatment study, a single bolus of drugs (NR2A-specific antagonist NVP-AAM077 (2.4 mg/kg) or NR2B specific antagonist Ro 25-6981 (6 mg/kg) or vehicle (saline)) was infused intravenously 30 min before a 1-h MCAo. For post-treatment experiments, animals were subjected to a 1.5-h MCAo and drug treatments (glycine, 800 mg/kg; NVP-AAM077 and Ro 25-6981 at the same doses as in the pretreatment study) were then given via intraperitoneal injection (i.p.) 3 h after reperfusion (4.5 h after the onset of MCAo).
The activating effect on NR2A-containing receptors was mimicked with the application of the NMDA receptor co-agonist glycine in the presence of an […] NR2B antagonist. Glycine by itself potentiates the function of NMDA receptors that are activated by endogenously released glutamate from presynaptic terminals both in vitro and in vivo (Johnson et al., 1987; Lu et al., 2001; De et al., 2000).

cortical neurons [4] = assay: Neuronal apoptosis under basal, non-stimulated conditions; format: cell-based, rat; conditions: no bicuculline stimulation
Method: Under bicuculline incubation, the increased action potential-dependent synaptic release of glutamate may lead to activation of extrasynaptic NMDA receptors by glutamate spillover.
as §1

For `C[C@@H](CN1CCC(Cc2ccccc2)CC1)[C@@H](O)c1ccc(O)cc1` (relative stereo) [Ro 25-6981, [R-(R*,S*)]-α-(4-Hydroxyphenyl)-β-methyl-4-(phenylmethyl)-1-piperidinepropanol], the “percentage blockade of NMDA-induced currents, applied alone” value [1] was 34.6%±1.8%, the “reduction in the percentage of NMDA current inhibition by Ro25-6981 following NVP-AAM077 blockade” value ([1]; alone vs after NVP-AAM077 0.4 μM) was 5.6% and the “percentage blockade of NMDA-induced currents, applied after blockade by the other antagonist” value [1] was 29.0%±3.3%. For the same compound, the “effect on slow NMDA receptor-mediated component of mEPSCs” value (synaptic NMDA receptors; -60 mV, zero added Mg2+, APV 50 μM, Ro 25-6981 0.5 μM) was “significantly reduced”, the “NR2B-containing receptor-mediated (Ro 25-6981-sensitive) component of synaptic NMDA currents” value (synaptic NMDA receptors; Ro 25-6981 0.5 μM, n=5) was 32.4±3.6% and the “effect on the neuroprotective effect of glycine pretreatment” value (cortical neurons [2]) was “not by affected”. The “effect on OGD-induced neuronal apoptosis” value (cortical cultures) was “drastically reduced”, the “effect of co-administration on the glycine effect (infarct volume reduction)” value (“effect … (infarct volume reduction)” below) [3] was “resistant” and the “neuroprotection / total infarct volume compared with MCAo alone” value ([3]; given 3 h after 1.5-h MCAo (4.5 h after stroke onset), MK801 1 mg/Kg, glycine 800 mg/Kg, Ro 25-6981 6 mg/Kg) was “did not provide any noticeable neuroprotection; also recorded: ineffectiveness”. The “effect on NVP-AAM077 (48 h)-induced apoptosis” value (cortical neurons [4]) was “prevented” and the “neuronal apoptosis after incubation for 48 h” value (cortical neurons [4]) was “did not increase neuronal apoptosis”.

For `C[C@H](NC(c1cccc2[nH]c(=O)c(=O)[nH]c12)P(=O)(O)O)c1ccc(Br)cc1` (some centres unmarked) [NVP-AAM077], the “percentage blockade of NMDA-induced currents, applied alone” value [1] was 42.9%±5.9%, the “percentage blockade of NMDA-induced currents, applied after blockade by the other antagonist” value [1] was 43.4%±12.4% and the “effect on the remainder (non-NR2B) of the synaptic NMDA currents” value (synaptic NMDA receptors; NVP-AAM077 0.4 μM, n=5) was “largely eliminated”. For the same compound, the “effect on the neuroprotective effect of glycine pretreatment” value (cortical neurons [2]) was “prevented”, the “effect on OGD-induced neuronal apoptosis” value (cortical cultures) was “significantly enhanced OGD-induced neuronal apoptosis” and the “effect … (infarct volume reduction)” value [3] was “abolished; also recorded: prevented”. For the same compound, the “effect … (infarct volume reduction)” value ([3]; listed as NVP-AAM066) was “abolished the neuroprotection offered by glycine”, the “neuronal apoptosis after incubation for 4 h” value (cortical neurons [4]) was “failed to increase neuronal apoptosis” and the “neuronal apoptosis after incubation for 48 h” value (cortical neurons [4]) was “significant increase in neuronal apoptosis”.
